Laboratory results as given in ChEMBL document CHEMBL1123205, “Synthesis and antihypertensive activity of a series of 4-amino-6,7-dimethoxyquinazoline derivatives” (1986).

Legend:
Type in all cases: functional
Rattus norvegicus [1] = assay: Antihypertensive activity determined as percent fall in blood pressure after 4 hours in spontaneously hypertensive rats administered with 10 mg/kg, (po)
Rattus norvegicus [2] = assay: Antihypertensive activity determined as percent fall in blood pressure after 2 hr in spontaneously hypertensive rats administered with 10 mg/kg (po)
Rattus norvegicus [3] = assay: Antihypertensive activity determined as percent fall in blood pressure after 2 hr in spontaneously hypertensive rats administered with 3 mg/kg (po)
Rattus norvegicus [4] = assay: Antihypertensive activity determined as percent fall in blood pressure after 4 hours in spontaneously hypertensive rats administered with 3 mg/kg, (po)

COc1cc2nc(N(C)CCCNC(=O)C3Cc4ccccc4O3)nc(N)c2cc1OC.Cl (configuration not stated)
Activity (Rattus norvegicus [1]): -19% | Activity (Rattus norvegicus [2]): -22%

COc1cc2nc(N(C)CCCNC(=O)c3cc4ccccc4o3)nc(N)c2cc1OC.Cl
Activity (Rattus norvegicus [1]): 0% | Activity (Rattus norvegicus [2]): 0%

COc1cc2nc(N(C)CCN(C)C(=O)c3ccccc3)nc(N)c2cc1OC
Activity (Rattus norvegicus [1]): 0% | Activity (Rattus norvegicus [2]): 0%

CCN(CCCN(C)C(=O)c1ccccc1)c1nc(N)c2cc(OC)c(OC)cc2n1.Cl
Activity (Rattus norvegicus [1]): -12% | Activity (Rattus norvegicus [2]): -16%

COc1cc2nc(N(C)CCCN(C)C(=O)c3ccccc3)nc(N)c2cc1OC.Cl
Activity (Rattus norvegicus [1]): -15% | Activity (Rattus norvegicus [2]): -23%

CCN(CCCN(CC)c1nc(N)c2cc(OC)c(OC)cc2n1)C(=O)c1ccco1.Cl
Activity (Rattus norvegicus [1]): -11% | Activity (Rattus norvegicus [2]): -16%

COc1cc2nc(NCCCNC(=O)c3ccccc3)nc(N)c2cc1OC.Cl
Activity (Rattus norvegicus [1]): -7% | Activity (Rattus norvegicus [2]): -9%

COc1cc2nc(N(C)CCCNC(=O)c3ccco3)nc(N)c2cc1OC.Cl
Activity (Rattus norvegicus [1]): -17% | Activity (Rattus norvegicus [2]): -20%

COc1cc2nc(N(C)CCCNC(=O)c3ccccc3)nc(N)c2cc1OC.Cl
Activity (Rattus norvegicus [1]): -23% | Activity (Rattus norvegicus [2]): -31%

COc1cc2nc(N(C)CCCN(C)C(=O)c3ccco3)nc(N)c2cc1OC.Cl
Activity (Rattus norvegicus [1]): -20% | Activity (Rattus norvegicus [2]): -24%

COc1cc2nc(N(C)CCCN(C)C(=O)c3cccnc3)nc(N)c2cc1OC.Cl
Activity (Rattus norvegicus [1]): -9% | Activity (Rattus norvegicus [2]): -5%

COc1cc2nc(N(C)CCCNC(=O)/C=C/c3ccccc3)nc(N)c2cc1OC.Cl
Activity (Rattus norvegicus [1]): 3% | Activity (Rattus norvegicus [2]): 0%

COc1cc2nc(N(C)CCCNC(=O)C3CCOC3)nc(N)c2cc1OC.Cl (configuration not stated)
Activity (Rattus norvegicus [1]): -10% | Activity (Rattus norvegicus [2]): -24%

COc1cc2nc(N(C)CCCN(C)C(=O)c3nnc(SC)o3)nc(N)c2cc1OC.Cl
Activity (Rattus norvegicus [1]): -6% | Activity (Rattus norvegicus [2]): -20%

COc1cc2nc(N(C)CCCN(C)C(=O)C3CCCO3)nc(N)c2cc1OC.Cl (configuration not stated)
Activity (Rattus norvegicus [1]): -7% | Activity (Rattus norvegicus [2]): -14%

COc1cc2nc(N(C)CCCNC(=O)C3CC3)nc(N)c2cc1OC.Cl
Activity (Rattus norvegicus [1]): -12% | Activity (Rattus norvegicus [2]): -19%

COc1cccc(C(=O)N(C)CCCN(C)c2nc(N)c3cc(OC)c(OC)cc3n2)c1.Cl
Activity (Rattus norvegicus [1]): 0% | Activity (Rattus norvegicus [2]): -12%

COc1cc2nc(N(C)CCCN(CC(C)C)C(=O)c3ccccc3)nc(N)c2cc1OC.Cl
Activity (Rattus norvegicus [1]): 6% | Activity (Rattus norvegicus [2]): 0%

CCN(CCCN(CC)c1nc(N)c2cc(OC)c(OC)cc2n1)C(=O)c1ccccc1.Cl
Activity (Rattus norvegicus [1]): -5% | Activity (Rattus norvegicus [2]): -1%

COc1cc2nc(NCCCN(C)C(=O)C3CCCO3)nc(N)c2cc1OC.Cl (configuration not stated)
Activity (Rattus norvegicus [1]): -6% | Activity (Rattus norvegicus [2]): -8%

COc1cc2nc(N(C)CCCNC(=O)C3CCCC3)nc(N)c2cc1OC.Cl
Activity (Rattus norvegicus [1]): -20% | Activity (Rattus norvegicus [2]): -30%

COc1cc2nc(N(C)CCCNC(=O)C3COc4ccccc4O3)nc(N)c2cc1OC.Cl (configuration not stated)
Activity (Rattus norvegicus [1]): -6% | Activity (Rattus norvegicus [2]): 2%

COc1cc2nc(N(C)CCN(C)C(=O)c3ccco3)nc(N)c2cc1OC.Cl
Activity (Rattus norvegicus [1]): 0% | Activity (Rattus norvegicus [2]): 0%

COc1cc2nc(N(C)CCCN(C)C(=O)c3cccc(C)c3)nc(N)c2cc1OC.Cl
Activity (Rattus norvegicus [1]): 0% | Activity (Rattus norvegicus [2]): -10%

COc1cc(OC)cc(C(=O)N(C)CCCN(C)c2nc(N)c3cc(OC)c(OC)cc3n2)c1.Cl
Activity (Rattus norvegicus [1]): -2% | Activity (Rattus norvegicus [2]): -6%

COc1cc2nc(N(C)CCCCN(C)C(=O)c3ccccc3)nc(N)c2cc1OC.Cl
Activity (Rattus norvegicus [1]): -12% | Activity (Rattus norvegicus [2]): -21%

COc1cc2nc(N(C)CCCN(C)C(=O)c3cc(OC)c(OC)c(OC)c3)nc(N)c2cc1OC.Cl
Activity (Rattus norvegicus [1]): -6% | Activity (Rattus norvegicus [2]): -11%

COc1cc2nc(N(C)CCCNC(=O)C3CCOCC3)nc(N)c2cc1OC
Activity (Rattus norvegicus [1]): -7% | Activity (Rattus norvegicus [2]): -27%

COc1cc2nc(N(C)CCCNC(=O)C3CCCO3)nc(N)c2cc1OC.Cl (configuration not stated) [ALFUZOSIN HYDROCHLORIDE]
Activity (Rattus norvegicus [1]): -24% | Activity (Rattus norvegicus [2]): -34%

COc1cc2nc(N3CCN(C(=O)c4ccco4)CC3)nc(N)c2cc1OC.Cl [PRAZOSIN HYDROCHLORIDE]
Activity (Rattus norvegicus [1]): -35% | Activity (Rattus norvegicus [3]): -30% | Activity (Rattus norvegicus [2]): -37% | Activity (Rattus norvegicus [4]): -25%
